Test results taken from patent US20150005347A1, “NITROGEN-CONTAINING HETEROCYCLIC DERIVATIVE HAVING 2-IMINO GROUP AND PEST CONTROL AGENT INCLUDING THE SAME” (MEIJI SEIKA PHARMA CO., LTD., priority 2012, published 2015).

What was measured:
Type in all cases: in vivo
[1] = test system: Musca domestica; test: Pest control test of Musca domestica adults, sucrose pledget; conditions: 50 ppm in 40% sucrose liquid; four days after release
Experimental: Test Example 21 Pest Control Test of Musca domestica
A drug solution of the compound of the present invention, which had been adjusted to be 50 ppm with a 40% sucrose liquid, was adsorbed on a pledget, and the pledget was put into a vial. Two adults reared indoors were released thereto. Thereafter, the adults were left to stand indoors at room temperature of 25° C. […] When two adults were all agonized in death, it was judged to be effective.

[2] = test system: Plutella xylostella; test: Plutella xylostella control test, cabbage leaf disk foliar spray; conditions: for mortality at 100 ppm / mortality at 500 ppm: Plutella xylostella, 72 h, second instar larvae, three days after release, read-out: mortality of larvae; for mortality at 100 ppm: foliar treatment at 100 ppm; for mortality at 500 ppm: foliar treatment at 500 ppm; for % Mortality, Test Example1 Plutella xylostella: foliar treatment
Experimental: Test Example 1 Plutella xylostella Control Test
A leaf disk having a diameter of 5.0 cm was cut out from a cabbage in pot culture, and a drug solution of the compound of the present invention at a predetermined concentration, which had been prepared so as to be a 50% acetone water (0.05% Tween20 available), was sprayed to the leaf disk. After an air drying process, second instar larvae were released thereto. Thereafter, the larvae were left to stand in a thermostatic chamber (16 hours of light period-8 hours of dark period) at 25° C. […] Test in duplicate.
mortality larvae(%)={number of dead larvae/(number of survived larvae+number of dead larvae)}×100

[3] = test system: Laodelphax striatella; test: Pest control test of Laodelphax striatella, foliar spray on rice seedling; conditions: Laodelphax striatellus, 144 h; foliar treatment at 1.25 ppm; second instar larvae; six days after release; read-out: mortality of larvae
Experimental: Test Example 6 Pest Control Test of Laodelphax striatella
A drug solution of the compound of the present invention at a predetermined concentration, which had been prepared so as to be a 50% acetone water (0.05% Tween20 available), was foliar sprayed to a rice seedling in pot culture. After an air drying process, second instar larvae were released thereto. Thereafter, the larvae were left to stand in a thermostatic chamber (16 hours of light period-8 hours of dark period) at 25° C. […] Test in duplicate.
(§1) Mortality of larvae(%)={number of dead larvae/(number of survived larvae+number of dead larvae)}×100

[4] = test system: Aphis gossypii; test: Pest control test of Aphis gossypii, cucumber leaf disk foliar spray; conditions: for mortality at 100 ppm / mortality at 500 ppm: Aphis gossypii, 72 h, first instar larvae, three days after release; for mortality at 100 ppm: foliar treatment at 100 ppm, read-out: mortality of larvae; for mortality at 500 ppm: foliar treatment at 500 ppm; for % Mortality, Test Example3 Aphis gossypii: foliar treatment
Experimental: Test Example 3 Pest Control Test of Aphis gossypii
A leaf disk having a diameter of 2.0 cm was cut out from a cucumber in pot culture, and a drug solution of the compound of the present invention at a predetermined concentration, which had been prepared so as to be a 50% acetone water (0.05% Tween20 available), was sprayed to the leaf disk. After an air drying process, first instar larvae were released thereto. Thereafter, the larvae were left to stand in a thermostatic chamber (16 hours of light period-8 hours of dark period) at 25° C. […] Test in duplicate.
as §1

[5] = test system: Spodoptera litura; test: Pest control test against Spodoptera litura, cabbage leaf disk foliar spray; conditions: for % Mortality, Test Example2 Spodoptera litura: foliar treatment, 100 ppm
Experimental: Test Example 2 Pest Control Test Against Spodoptera litura
A leaf disk having a diameter of 5.0 cm was cut out from a cabbage in pot culture, and a drug solution of the compound of the present invention at a predetermined concentration, which had been prepared so as to be a 50% acetone water (0.05% Tween20 available), was sprayed to the leaf disk. After an air drying process, third instar larvae were released thereto. Thereafter, the larvae were left to stand in a thermostatic chamber (16 hours of light period-8 hours of dark period) at 25° C. […] Test in duplicate.
as §1

[6] = test system: Frankliniella occidentalis; test: Pest control test of Frankliniella occidentalis, kidney bean leaf disk foliar spray; conditions: for % Mortality, Test Example7 Frankliniella occidentalis: foliar treatment, 100 ppm
Description: Test Example 7 Pest Control Test of Frankliniella occidentalis
A leaf disk having a diameter of 2.8 cm was cut out from a kidney bean in pot culture, and a drug solution of the compound of the present invention at a predetermined concentration, which had been prepared so as to be a 50% acetone water (0.05% Tween20 available), was sprayed to the leaf disk. After an air drying process, first instar larvae were released thereto. Thereafter, the larvae were left to stand in a thermostatic chamber (16 hours of light period-8 hours of dark period) at 25° C. […] Test in duplicate.
as §1

[7] = test system: Nilaparvata lugens exhibiting drug resistance to imidacloprid; conditions: soil irrigation; for Insecticidal effects against Nilaparvata lugens (mortality of larvae %), Drug resistant populations three days after the treatment: Rate 0.05 mg/pot; for insecticidal effects against drug resistant Nilaparvata lugens: imidacloprid-resistant; for mortality of larvae against drug resistant populations compared with susceptible populations of Nilaparvata lugens: imidacloprid-resistant vs susceptible
Experimental: Test Example 18 Pest Control Test of Drug-Resistant Nilaparvata lugens
(§2) A rice seedling in pot culture was subjected to soil irrigation treatment with a drug solution of the compound of the present invention at a predetermined concentration, which had been prepared so as to be a 10% acetone water. […] Thereafter, the larvae were left to stand in a thermostatic chamber (16 hours of light period-8 hours of dark period) at 25° C. […] The test was performed in duplicate.
as §1
(§3) Further, for the origin of test pests, bugs collected outdoors within the Kumamoto prefecture in 2007 as the drug resistant Nilaparvata lugens, and bugs collected within the Kagoshima prefecture and then successively reared indoors for a long time as the imidacloprid susceptible populations of Nilaparvata lugens were used.

[8] = test system: Laodelphax striatella; test: Pest control test of Laodelphax striatella, soil irrigation treatment of rice seedling; conditions: soil irrigation treatment
Description: <Soil Irrigation Treatment Test>
Test Example 10 Pest Control Test of Laodelphax striatellua
A rice seedling in pot culture was subjected to soil irrigation treatment with a drug solution of the compound of the present invention at a predetermined concentration, which had been prepared so as to be a 10% acetone water. Three days after the treatment, ten second instar larvae of Laodelphax striatella were each released thereto. Thereafter, the larvae were left to stand in a thermostatic chamber (16 hours of light period-8 hours of dark period) at 25° C. […] The test was performed in duplicate.
as §1

[9] = test system: Trigonotylus caelestialium; test: Pest control test of Trigonotylus caelestialium, wheat seedling dipping
Description: Test Example 8 Pest Control Test of Trigonotylus caelestialium
Wheat seedling leaves and stems four days after the dissemination of seedlings were dipped for 30 seconds in a drug solution of the compound of the present invention at a predetermined concentration, which had been prepared so as to be a 50% acetone water (0.05% Tween20 available). After an air drying process, the wheat seedling leaves and stems were placed into a glass tube, and two second instar larvae of Trigonotylus caelestialium were released to the same glass tube. After the larvae were released, the tube was lidded to leave the larvae to stand in a thermostatic chamber at 25° C. In order to supply water to the wheat during the test, water was given to the wheat from the bottom of the glass tube.
as §1

[10] = test system: imidacloprid susceptible populations of Nilaparvata lugens; test: Soil irrigation test, imidacloprid susceptible populations of Nilaparvata lugens; conditions: Rate 0.05 mg/pot
Experimental: as §2, §1
Further, for comparison, the test against some population of Nilaparvata lugens which is highly susceptible to imidacloprid was performed by the same method as described above, and the results thereof are shown in Table 43.
as §3

[11] = test system: Nilaparvata lugens; test: Pest control test of Nilaparvata lugens, soil irrigation treatment; conditions: soil irrigation treatment
Experimental: Test Example 12 Pest Control Test of Nilaparvata lugens
A rice seedling in pot culture was subjected to soil irrigation treatment with a drug solution of the compound of the present invention at a predetermined concentration, which had been prepared so as to be a 10% acetone water. Three days after the treatment, ten second instar larvae of Nilaparvata lugens were each released thereto. Thereafter, the larvae were left to stand in a thermostatic chamber (16 hours of light period-8 hours of dark period) at 25° C. […] The test was performed in duplicate.
as §1

| Compound | activity against adults (effective when two adults were all agonized in death) [1] | mortality at 100 ppm [2] [%] | mortality at 500 ppm [2] [%] | mortality at 1.25 ppm [3] [%] | mortality at 100 ppm [4] [%] | mortality at 500 ppm [4] [%] | Insecticidal effects against Nilaparvata lugens (mortality of larvae %), Drug resistant populations three days after the treatment [7] [%] | insecticidal effects against drug resistant Nilaparvata lugens [7] | mortality of larvae against drug resistant populations compared with susceptible populations of Nilaparvata lugens [7] | % Mortality, Test Example 10 Laodelphax striatella ([8]; 0.005 mg/pot) [%] | % Mortality, Test Example 10 Laodelphax striatella ([8]; 0.01 mg/pot) [%] | % Mortality, Test Example 10 Laodelphax striatella ([8]; 0.05 mg/pot) [%] | % Mortality, Test Example1 Plutella xylostella ([2]; 20 ppm) [%] | % Mortality, Test Example1 Plutella xylostella ([2]; 100 ppm) [%] | % Mortality, Test Example8 Trigonotylus caelestialium ([9]; 10 ppm) [%] | % Mortality, Test Example2 Spodoptera litura [5] [%] | % Mortality, Test Example7 Frankliniella occidentalis [6] [%] | Insecticidal effects against Nilaparvata lugens (mortality of larvae %), Susceptible populations three days after the treatment [10] [%] | % Mortality, Test Example3 Aphis gossypii ([4]; 1.25 ppm) [%] | % Mortality, Test Example3 Aphis gossypii ([4]; 5 ppm) [%] | further results |
| --- | --- | --- | --- | --- | --- | --- | --- | --- | --- | --- | --- | --- | --- | --- | --- | --- | --- | --- | --- | --- | --- |
| CN=C(/N=c1\ccccn1Cc1ccc(Cl)nc1)C(F)(F)F [Compound 1-42, N-[1-((6-chloropyridin-3-yl)methyl)pyridin-2(1H)-ylidene]-2,2,2-trifluoro-N′-methylacetimidamide] | all the adults are agonized in death | ≥ 80 | ≥ 80 | ≥ 80 | ≥ 80 | ≥ 80 |  |  |  |  |  |  |  |  |  |  |  |  |  |  |  |
| ON=C(/N=c1\ccccn1Cc1ccc(Cl)nc1)C(F)(F)F [Compound 1-499, N-[1-((6-chloropyridin-3-yl)methyl)pyridin-2(1H)-ylidene]-2,2,2-trifluoro-N′-hydroxyacetimidamide] |  | ≥ 80 | ≥ 80 | ≥ 80 | ≥ 80 | ≥ 80 |  |  |  |  |  |  |  |  |  |  |  |  |  |  | mortality at 500 ppm ([5]; Spodoptera litura, 72 h, foliar treatment at 500 ppm, third instar larvae, three days after release, read-out: mortality of larvae): ≥ 80%; mortality at 500 ppm ([6]; Frankliniella occidentalis, 72 h, foliar treatment at 500 ppm, first instar larvae, three days after release, read-out: mortality of larvae): ≥ 80% |
| O=C(ON=C(/N=c1\ccccn1Cc1ccc(Cl)nc1)C(F)(F)F)c1ccccc1 [Compound 1-519, N-(benzoyloxy)-N-[1-((6-chloropyridin-3-yl)methyl)pyridin-2(1H)-ylidene]-2,2,2-trifluoroacetimidamide] |  | ≥ 80 | ≥ 80 | ≥ 80 | ≥ 80 | ≥ 80 |  |  |  |  |  |  |  |  |  |  |  |  |  |  |  |
| FC(F)(F)C(=S)N=c1ccccn1Cc1ccc(Br)nc1 [Compound 4-20] | all the adults are agonized in death |  |  |  |  |  | 100 | high insecticidal effects | equivalent mortality of larvae | 35 | 100 | 100 | 70 | 100 | 100 | 20 | 60 | 95 | 100 | 100 | % Mortality, Test Example8 Trigonotylus caelestialium ([9]; 2 ppm): 33%; % Mortality, Test Example8 Trigonotylus caelestialium ([9]; 50 ppm): 100%; % Mortality, Test Example3 Aphis gossypii ([4]; 100 ppm): 100%; % Mortality, Test Example 12 Nilaparvata lugens ([11]; 0.01 mg/pot): 96%; % Mortality, Test Example 12 Nilaparvata lugens ([11]; 0.05 mg/pot): 100% |
| Fc1cc(Cn2ccccc2=NC(=S)C(F)(F)F)cnc1Cl [Compound 5-20] | all the adults are agonized in death |  |  |  |  |  | 100 | high insecticidal effects | equivalent mortality of larvae | 26 | 52 | 95 | 100 | 100 | 17 | 60 | 50 | 91 | 55 | 100 | % Mortality, Test Example1 Plutella xylostella ([2]; 5 ppm): 20%; % Mortality, Test Example 12 Nilaparvata lugens ([11]; 0.01 mg/pot): 90%; % Mortality, Test Example 12 Nilaparvata lugens ([11]; 0.05 mg/pot): 100% |
